Experimental findings from patent US9084817B2, “Oral preparation comprising specific organic acid, and method for improvement in elution property and chemical stability of oral preparation” (TORAY INDUSTRIES, INC., priority 2007, dated 2015) are described below.

The series is described as follows: Water required to dissolve 1 g of organic acid at 20° C. (Japanese Pharmacopoeia solubility). The series is classed as physicochemical. The procedure: The organic acid 1 g of which requires not less than 30 mL of water to dissolve in at 20° C. refers to such an organic acid that 30 mL or more of water is required to dissolve 1 g of the organic acid within 30 minutes at 20±5° C. by vigorous shaking for 30 seconds each time at 5-minute intervals, in accordance with the description about solubility in the Japanese Pharmacopoeia, 15th Edition, General Notices, page A-13.

Some results are limits rather than exact numbers.

`O=C(O)/C=C/C(=O)O` [Fumaric acid]: the “Water required to dissolve 1 g of organic acid in at 20° C.” value is reported as no less than 100 mL.
